Test results reported in patent US12290500B2, “Anaplerotic agents for treatment of disorders of propionate and long chain fat metabolism” (University of Pittsburgh—Of the Commonwealth System of …, priority 2016, dated 2025).

Test system: PCC deficient cells
Method: Control cells and PCC cells obtained from patients with PA and generated through CRISPR/CAS9 technology are grown in media with and without succinate supplementation and the metabolite profile of cell extracts is determined by metabolomic techniques. First, PCC deficient cells are grown in T-25 flasks in standard DMEM medium with and without supplemental succinate (0.1-2 mmol/L). Cells are harvested, lysed by sonication and intracellular concentrations of TCA cycle intermediates are measured by liquid chromatography-mass spectrometry (LC-MS)/MS. Next, flux through the TCA cycle is measured by incorporation of radiolabel from uniformly labeled ^14C-palmitate into TCA cycle intermediates after incubation with PPC deficient and control cells. PCC deficient cell lines are grown in DMEM complete media and transferred to 6-well plates at a seeding density of ˜200,000 cells/well. The media in the wells is changed after 24 hours to DMEM media containing 5% dialyzed fetal bovine serum (FBS). After approximately one hour, the first time point (180 minutes) receives DMEM 5% dialyzed FBS containing universally labeled palmitate with ^13C […]. The cells are incubated at 37° C., 4% CO2 for the following time points: 180 minutes, 60 minutes, 30 minutes, 10 minutes and 0 minutes. The 0 minute time point receives no isotopic labeling.

`O=C(O)CCC(=O)O` [succinate] was tested, and the “decreased level of TCA cycle intermediates” value (cell lines from patients with PA or MMA, succinate supplementation 0.1-2 mmol/L) was “expected to be reversed” and the “impaired incorporation of label from palmitate through the TCA cycle into protein” value (succinate supplementation) was “expected to be reversed”.
